Experimental data: US12319683B2, “Azabenzimidazole compounds and pharmaceutical” (NIPPON SHINYAKU CO., LTD., priority 2018, dated 2025)
Structures can show the parent of a compound that is named as a salt. Where two headings read alike, the source gives them in different places.

What was measured:
SD female rats [1] = assay: Effect on the increase in intravesical pressure induced by electrical stimulation of the pelvic nerve in anesthetized rats; type: in vivo, rat; conditions: for change in vivo at 0.3 mg/kg: Rattus norvegicus, iv, 1 h, read-out: Percentage Change (%) Rc of AUC of increase of intravesical pressure (maximum during 1 hour after administration)
Method: For evaluation of in vivo effect on neurogenic bladder contraction, effects of the test compounds on the increase in intravesical pressure induced by electrical stimulation of the pelvic nerve in rats were determined according to the following method.
SD female rats (Japan SLC, Inc.) were anesthetized by subcutaneous administration of 1200 mg/kg of urethane (Wako Pure Chemical Corporation), and the lower abdomens of the rats were incised in the midline. After the ureters were ligated and cut at locations proximal to the bladder, a cannula (PE-60, BECTON DICKINSON) for cystometry was inserted into the bladder through the external urethral orifice and fixed with sutures. After injecting saline (about 200 μL) via the cannula inserted into the bladder, the other end of the cannula was connected to a pressure transducer to measure intravesical pressure.
The pelvic nerve near the urinary bladder of the rat was gently separated and dissected under stereomicroscope observation and attached to an electrode for nerve stimulation (K2-14015M-PT, BrainScience idea. Co., Ltd.). The peritoneal cavity of the rat was filled with liquid paraffin (26114-75, NACALAI TESQUE, INC.). After the postoperative rest period, an electrical stimulator (SEN-7203, NIHON KOHDEN CORPORATION) was used to stimulate the pelvic nerve to induce increase in intravesical pressure. The stimulation frequency was 8 Hz, the pulse width was 0.3 ms, and the stimulation time was 10 seconds. The voltage of the electrical stimulator was adjusted so that the increase in intravesical pressure was about 50-70% of that at stimulation with 10 V.
The electric stimulation was repeated with an interval of 10 minutes. After the increase of intravesical pressure induced by electric stimulation was stabilized three times or more, a test compound (dosage 0.3 mg/kg), distigmine bromide (dosage 0.03, 0.1 mg/kg) or a vehicle was intravenously administered at 1.0 mL/kg via the catheter placed into femoral vein. The effect of the test compound on increase of intravesical pressure was measured for 1 hour. Saline was used as a vehicle, and the test compound was dissolved in dimethyl sulfoxide before adding to the vehicle. The final concentration of dimethyl sulfoxide was 10%.
The response data (intravesical pressure) were recorded on a personal computer via data collection and analysis system (PowerLab®, ADInstruments) and analyzed using analysis software (LabChart®, ADInstruments). For each electric stimulation, AUC of increase of intravesical pressure (area under the curve of transition of intravesical pressure) was calculated, and percentage change Rc (unit: %) compared to the value (AUC) before the administration of the test compound was calculated according to the following equation (2). In the equation (2), Ab is AUC before administering a test compound, and Aa is AUC after administering a test compound. In addition, the maximum effect observed during 1 hour after administering the test compound (maximum percentage change Rc) was defined as the effect of the test compound. The higher percentage change Rc, the higher effect on enhancement of bladder contraction force and increase of intravesical pressure. Rc=100×(Aa−Ab)/Ab (2)

SD female rats [2] = assay: as above; type: in vivo, rat; conditions: intravenous, 0.1 mg/kg
[3] = anesthetized SD female rats, pelvic nerve electrical stimulation, test compound 0.3 mg/kg intravenously

| Structure (SMILES) | change in vivo at 0.3 mg/kg (SD female rats [1]; [3]) [%] | also measured |
| --- | --- | --- |
| COC[C@@H]1CN(c2cnc(-c3nc4nc(-c5cnc(C6CC6)c(C(F)(F)F)c5)cc(N(C)CC5(COC)CCCCC5)c4[nH]3)cn2)CCN1CCC(=O)O [Example 8, 3-[(2S)-4-(5-{5-[6-Cyclopropyl-5-(trifluoromethyl)pyridin-3-yl]-7-[{[1-(methoxymethyl)cyclohexyl]methyl}(methyl)amino]-1H-imidazo[4,5-b]pyridin-2-yl}pyrazin-2-yl)-2-(methoxymethyl)piperazin-1-yl]propanoic acid] | 374 |  |
| COCC1(CN(C)c2cc(-c3cnc(C4CC4)c(C(F)(F)F)c3)nc3nc(-c4cnc(N5CCN(CCC(=O)O)CC5)cn4)[nH]c23)CCCCC1 [Example 6, 3-[4-(5-{5-[6-Cyclopropyl-5-(trifluoromethyl)pyridin-3-yl]-7-[{[1-(methoxymethyl)cyclohexyl]methyl}(methyl)amino]-1H-imidazo[4,5-b]pyridin-2-yl}pyrazin-2-yl)piperazin-1-yl]propanoic acid] | 571 |  |
| CN(CCCCCCN(C)C(=O)Oc1ccc[n+](C)c1)C(=O)Oc1ccc[n+](C)c1 [distigmine bromide, reference compound] |  | nicotinic side effect (fasciculation) (SD female rats [2]): observed; enhancement effect on bladder contractility (SD female rats [1]; anesthetized rats, intravenous, test compound 0.3 mg/kg, distigmine bromide 0.03, 0.1 mg/kg, electrical stimulation of pelvic nerve): showed enhancement of bladder contractility |
| CCOc1cc(-c2cc(N(C)CC3(COC)CCCC3)c3[nH]c(-c4cnc(N5[C@@H]6CC[C@H]5C[C@@H](OCC(=O)O)C6)cn4)nc3n2)cc(C(F)(F)F)n1 [Example 15, Sodium {[(1R,3r,5S)-8-(5-{5-[2-ethoxy-6-(trifluoromethyl)pyridin-4-yl]-7-[{[1-(methoxymethyl)cyclopentyl]methyl}(methyl)amino]-1H-imidazo[4,5-b]pyridin-2-yl}pyrazin-2-yl)-8-azabicyclo[3.2.1]octan-3-yl]oxy}acetate] |  | change in vivo at 0.3 mg/kg (SD female rats [1]): 276% |
| COCC1(CN(C)c2cc(-c3cnc(C4CC4)c(C(F)(F)F)c3)nc3nc(-c4ccc(OC5CCN(CC(=O)O)CC5)cc4F)[nH]c23)CCCC1 [Example 10, [4-(4-{5-[6-Cyclopropyl-5-(trifluoromethyl)pyridin-3-yl]-7-[{[1-(methoxymethyl)cyclopentyl]methyl}(methyl)amino]-1H-imidazo[4,5-b]pyridin-2-yl}-3-fluorophenoxy)piperidin-1-yl]acetic acid] | 82.6 |  |
| COCC1(CN(C)c2cc(-c3cnc(C4CC4)c(C(F)(F)F)c3)nc3nc(-c4cnc(N5CCN(CCC(=O)O)C[C@H]5C)cn4)[nH]c23)CCCCC1 [Example 7, 3-[(3R)-4-(5-{5-[6-Cyclopropyl-5-(trifluoromethyl)pyridin-3-yl]-7-[{[1-(methoxymethyl)cyclohexyl]methyl}(methyl)amino]-1H-imidazo[4,5-b]pyridin-2-yl}pyrazin-2-yl)-3-methylpiperazin-1-yl]propanoic acid] | 608 |  |
| CCOc1ncc(-c2cc(N(C)CC3(COC)CCCC3)c3[nH]c(-c4ccc(N5CCC(C(=O)O)CC5)cc4F)nc3n2)cc1C(F)(F)F [Example 68] | 133 |  |
| CCOCC1(CN(C)c2cc(-c3cnc(C4CC4)c(C(F)(F)F)c3)nc3nc(-c4cnc(N5CCN(CCC(=O)O)C[C@H]5C)cn4)[nH]c23)CCCC1 [Example 14, Sodium 3-[(3R)-4-(5-{5-[6-cyclopropyl-5-(trifluoromethyl)pyridin-3-yl]-7-[{[1-(ethoxymethyl)cyclopentyl]methyl}(methyl)amino]-1H-imidazo[4,5-b]pyridin-2-yl}pyrazin-2-yl)-3-methylpiperazin-1-yl]propanoate] | 400 |  |
| COCC1(CN(C)c2cc(-c3cc(C4CC4)nc(C(F)(F)F)c3)nc3nc(-c4cnc(N5CCN(CCC(=O)O)C[C@H]5C)cn4)[nH]c23)CCCCC1 [Example 16, Sodium 3-[(3R)-4-(5-{5-[2-cyclopropyl-6-(trifluoromethyl)pyridin-4-yl]-7-[{[1-(methoxymethyl)cyclohexyl]methyl}(methyl)amino]-1H-imidazo[4,5-b]pyridin-2-yl}pyrazin-2-yl)-3-methylpiperazin-1-yl]propanoate] | 182 |  |
| CCOc1cc(-c2cc(N(C)CC3(COC)CCC3)c3[nH]c(-c4cnc(N5CCC(C(=O)O)CC5)cn4)nc3n2)cc(C(F)(F)F)n1 [Example 11, 1-(5-{5-[2-Ethoxy-6-(trifluoromethyl)pyridin-4-yl]-7-[{[1-(methoxymethyl)cyclobutyl]methyl}(methyl)amino]-1H-imidazo[4,5-b]pyridin-2-yl}pyrazin-2-yl)piperidine-4-carboxylic acid dihydrochloride] | 270 |  |
| COCC1(CN(C)c2cc(-c3cc(F)cc(C(F)(F)F)c3)nc3nc(-c4cnc(N5CCN(CC(=O)O)CC5)cn4)[nH]c23)CCC1 [Example 37] | 91.2 |  |
| CCOc1cc(-c2cc(N(C)CC3(COC)CCCC3)c3[nH]c(-c4cnc(N5CCC(C(=O)O)CC5)cn4)nc3n2)cc(C(F)(F)F)n1 [Example 2, 1-(5-{5-[2-Ethoxy-6-(trifluoromethyl)pyridin-4-yl]-7-[{[1-(methoxymethyl)cyclopentyl]methyl}(methyl)amino]-1H-imidazo[4,5-b]pyridin-2-yl}pyrazin-2-yl)piperidine-4-carboxylic acid] | 331 |  |
| COCC1(CN(C)c2cc(-c3cc(C4CC4)nc(C(F)(F)F)c3)nc3nc(-c4cnc(N5CCC(OCC(=O)O)CC5)cn4)[nH]c23)CCCC1 [Example 4, {[1-(5-{5-[2-Cyclopropyl-6-(trifluoromethyl)pyridin-4-yl]-7-[{[1-(methoxymethyl)cyclopentyl]methyl}(methyl)amino]-1H-imidazo[4,5-b]pyridin-2-yl}pyrazin-2-yl)piperidin-4-yl]oxy}acetic acid] | 123 |  |
| CCOCC1(CN(C)c2cc(-c3cnc(C4CC4)c(C(F)(F)F)c3)nc3nc(-c4cnc(N5CCC(C(=O)O)CC5)cn4)[nH]c23)CCCC1 [Example 3, 1-(5-{5-[6-Cyclopropyl-5-(trifluoromethyl)pyridin-3-yl]-7-[{[1-(ethoxymethyl)cyclopentyl]methyl}(methyl)amino]-1H-imidazo[4,5-b]pyridin-2-yl}pyrazin-2-yl)piperidine-4-carboxylic acid] | 311 |  |
| COCC1(CN(C)c2cc(-c3cc(F)cc(C(F)(F)F)c3)nc3nc(-c4cnc(N5CCC(F)(C(=O)O)CC5)cn4)[nH]c23)CCC1 [Example 38] | 98.1 |  |
| CCOc1cc(-c2cc(N(C)CC(C)(C)COC)c3[nH]c(-c4cnc(N5CCC(C(=O)O)CC5)cn4)nc3n2)cc(C(F)(F)F)n1 [Example 1, 1-(5-{5-[2-Ethoxy-6-(trifluoromethyl)pyridin-4-yl]-7-[(3-methoxy-2,2-dimethylpropyl)(methyl)amino]-1H-imidazo[4,5-b]pyridin-2-yl}pyrazin-2-yl)piperidine-4-carboxylic acid] | 326 |  |
| CCOc1ncc(-c2cc(N(C)CC3(COC)CCC3)c3[nH]c(-c4cnc(N5CCC(C(=O)O)CC5)cn4)nc3n2)cc1C(F)(F)F [Example 42] | 119 |  |
| COCC1(CN(C)c2cc(-c3cnc(C4CC4)c(C(F)(F)F)c3)nc3nc(-c4cnc(N5CCN(CCC(=O)O)C[C@H]5C)cn4)[nH]c23)CCCC1 [Example 20, Sodium 3-[(3R)-4-(5-{5-[6-Cyclopropyl-5-(trifluoromethyl)pyridin-3-yl]-7-[{[1-(methoxymethyl)cyclopentyl]methyl}(methyl)amino]-1H-imidazo[4,5-b]pyridin-2-yl}pyrazin-2-yl)-3-methylpiperazin-1-yl]propanoate] | 249 |  |
